{"source": "patent EP1973398B1", "about": "“USE OF INOSITOL-TRIPYROPHOSPHATE IN TREATING TUMORS MEDIATED BY ANGIOGENESIS” (NormOxys, Inc., priority 2006, dated 2007)", "key": {"hemoglobin [1]": {"target": "T1, hemoglobin (Homo sapiens, UniProt P68871)", "T1 sequence (P69905 2-142 partner limits assumed)": "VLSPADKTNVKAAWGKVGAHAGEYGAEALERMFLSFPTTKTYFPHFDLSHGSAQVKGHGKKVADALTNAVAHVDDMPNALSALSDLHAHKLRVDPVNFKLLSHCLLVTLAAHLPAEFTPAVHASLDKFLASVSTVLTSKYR", "T1 sequence (P68871 2-147 limits assumed)": "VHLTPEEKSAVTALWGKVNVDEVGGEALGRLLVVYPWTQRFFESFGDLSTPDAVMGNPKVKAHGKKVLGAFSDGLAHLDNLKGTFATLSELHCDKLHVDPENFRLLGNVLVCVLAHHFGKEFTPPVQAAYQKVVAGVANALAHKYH", "details": "relative to DPG; cited from earlier work"}, "hemoglobin [2]": {"target": "T1, hemoglobin", "details": "pH 7.4, 37 degrees C.; cited from earlier work"}, "[3]": {"test": "Right shift of P50 in piglets, ITPP injected intravenously", "type": "in vivo", "method": "ITPP was also injected intravenously (IV) in piglets.\n(§1) Based upon this observation, a CaCl2 (equimolar to ITPP) solution was injected with the ITPP solution, so that the dissociated phosphate groups of ITPP were saturated. None of the side effects observed previously occurred. […] The level of the other ions sodium and potassium was unchanged after IV injection of ITPP in piglets."}, "[4]": {"tested_on": "circulating red blood cells", "test": "Right shift of the ODC in mice, ITPP injected intraperitoneally", "type": "in vivo", "details": "intraperitoneal, pH 7, 200µl, 45-150 mM (0.17-0.88 g/kg body weight)", "method": "(§2) When ITPP (pH 7, 200µl) was injected intraperitoneally in mice, the P50 values of circulating red blood cells were shifted up to 23%. […] The level of ions, such as sodium, potassium and calcium were normal after ip injection. Six (6) mice were each injected intraperitoneally with 45-150 mM (= 0.17-0.88 g/kg body weight) of ITPP."}, "[5]": {"test": "Tolerability and serum ions in mice after intraperitoneal ITPP", "type": "in vivo", "method": "as §2"}, "VEGF mRNA": {"tested_on": "VEGF mRNA", "test": "VEGF mRNA by RT-PCR in Lewis Lung carcinoma tumors of mice drinking ITPP", "type": "in vivo, C57BL/6 mice", "details": "LLC tumors, mice having received ITPP 20g/L orally, day 9, versus controls; quantification of gel assays", "method": "ITPP, when administered orally, intravenously, or intraperitoneally, inhibits angiogenesis in growing tumors by enhancing PO2 in the forming tumors. […] All animals received then 1x10^6 Lewis Lung carcinoma (LLC) cells, injected in the dorsal cavity. At different time points, the VEGF mRNA were assayed by RT-PCR in the tumors growing in both groups of mice.\nThere was a difference in the level of mRNA of the VEGF gene in both groups. […] The RT-PCR agarose gel assay of VEGF mRNAs from tumor tissue taken from 2 mice each on day 15 after inoculation of LLC cells (track 1: controls, track 2: ITPP treated animals) and day 30 after inoculation (track 3: control animals, track 4: ITPP treated animals).\nQuantification of the gel assays indicated a reduction by a factor of 10,000 of the amount of VEGF mRNAs detected in the tumors of animals having received ITPP, at day 9 and then, while differences remain between treated and untreated animals, they tend to decrease."}, "murine hemoglobin": {"target": "murine hemoglobin (Mus musculus, UniProt P01942+P02088)", "sequence (P01942 2-142 limits assumed)": "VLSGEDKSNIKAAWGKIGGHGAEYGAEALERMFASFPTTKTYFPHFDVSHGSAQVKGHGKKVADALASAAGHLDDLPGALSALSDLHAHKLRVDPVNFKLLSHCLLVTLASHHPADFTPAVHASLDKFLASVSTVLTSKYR", "sequence (P02088 2-147 limits assumed)": "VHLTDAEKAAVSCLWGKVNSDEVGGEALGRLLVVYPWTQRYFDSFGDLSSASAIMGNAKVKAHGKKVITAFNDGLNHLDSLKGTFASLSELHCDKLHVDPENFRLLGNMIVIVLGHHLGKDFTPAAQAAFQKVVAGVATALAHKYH", "test": "In vitro P50 shift, mixtures of hemoglobin and ITPP, HEMOX analyzer", "type": "biochemical", "details": "with murine hemoglobin", "method": "ITPP was tested for its ability to induce a decrease of the O2-affinity of hemoglobin measured as a shift of the P50 value (P50 at 50% saturation of hemoglobin). With murine hemoglobin and whole blood, P50 shifts to higher PO2 of up to 250% with hemoglobin and up to 40% with whole blood were observed.\nFor the in vitro experiments ITPP was dissolved in deionized water, pH was adjusted at pH 7 and, for incubation with whole blood, the osmolality of the ITPP solutions was adjusted with glucose to 270-297 mOsM. Mixtures of hemoglobin and ITPP were measured with a HEMOX analyzer (PD Marketing, London) immediately. Red blood cells were incubated with ITPP for 1 hour at 37[deg.]C. Following incubation, the cells were washed 3 times with Bis-Tris-buffer (PH=7.0) and then used for P50 measurement."}, "whole blood": {"tested_on": "whole blood", "test": "In vitro P50 shift, whole blood / red blood cells incubated with ITPP", "type": "cell-based, murine"}, "[6]": {"test": "Serum ion levels in piglets after intravenous ITPP", "type": "in vivo", "details": "for Ca^2+ conc.: piglet's circulation blood", "method": "In order to check possible side effects of ITPP the level of calcium in the serum of the injected piglet was determined. A strong drop in the Ca^2+ concentration in the animal's blood immediately after infusion indicated the possibility that ITPP, with 3 dissociated phosphate groups binds Ca^2+, reducing thus its availability as free ion in the blood. One day after infusion the concentration of Ca^2+ in the piglets' blood was restored to the normal value. Table 1: Ca2+ concentration in the piglet's circulation blood\nas §1"}, "[7]": {"test": "Tolerability, serum ions and blood counts in mice after oral ITPP", "type": "in vivo, C57BL/6 mice", "method": "Three (3) control mice drank pure water, and four (4) control mice a solution of myoinositol hexaphosphate (IHP) (same concentration and pH as ITPP).\nFigure 3 contains the mean values and SD for the serum concentration of sodium, potassium and calcium obtained on day 0, 7 and 11 after start drinking ITPP (4 mice), IHP (3 mice) or water (3 mice).\nBlood counts were measured from all mice, on day 0, 7 and 11."}, "[8]": {"tested_on": "murine circulating red blood cells", "test": "Right shift of the O2-hemoglobin dissociation curve in mice, ITPP orally in drinking water", "type": "in vivo, C57BL/6 mice", "method": "ITPP was dissolved in drinking water at a 20g/L-concentration (= 27mM, pH ~7.0.) and offered for drinking ad libitum.\nTwelve (12) C57BL/6 mice were fed the ITPP-solution (20g/L-concentration = 27mM, pH -7.0) for 4 days (up to 25 ml per 24 hrs). Three (3) control mice drank pure water, and four (4) control mice a solution of myoinositol hexaphosphate (IHP) (same concentration and pH as ITPP). Blood was collected from all mice on day 0 (before treatment started), and on days 1, 2, 4, 6, 7, 8, 10, 11 and 12 (after treatment had started), in order to measure P50 values."}}}
{"smiles": "O=P(O)(O)O[C@H]1[C@H](OP(=O)(O)O)[C@@H](OP(=O)(O)O)[C@H](OP(=O)(O)O)[C@@H](OP(=O)(O)O)[C@H]1OP(=O)(O)O", "note": "[IHP, inositol hexaphosphate]", "values": [{"measurement": "higher affinity to hemoglobin than DPG", "setting": "hemoglobin [1]", "result": 1000, "unit": "fold"}, {"measurement": "P50 of hemoglobin", "setting": "hemoglobin [2]", "result": "≤ 96.4 mm, Hg"}]}
{"smiles": "O=P1(O)OC2C3OP(=O)(O)OP(=O)(O)OC3C3OP(=O)(O)OP(=O)(O)OC3C2OP(=O)(O)O1", "note": "(stereo not drawn) [ITPP, inositol-tripyrophosphate]", "values": [{"measurement": "P50 shift", "setting": "[3]; IV, CaCl2 solution (equimolar to ITPP) injected with the ITPP solution", "result": "approximately 20 % of the basal value"}, {"measurement": "shift of P50", "setting": "[3]; intravenous", "result": "right shift of P50 was observed"}, {"measurement": "P50 values of circulating red blood cells shifted", "setting": "[4]", "result": "up to 23%"}, {"measurement": "concentration well tolerated by mice", "setting": "[5]; intraperitoneal injection", "result": "≤ 150000", "unit": "µM"}, {"measurement": "level of ions, such as sodium, potassium and calcium", "setting": "[5]; mice, after ip injection", "result": "normal"}, {"measurement": "reduction of the amount of VEGF mRNAs detected in the tumors", "setting": "VEGF mRNA", "result": "10,000 factor"}, {"measurement": "P50 shifts to higher PO2", "setting": "murine hemoglobin", "result": "up to 250%"}, {"measurement": "lysis of the red blood cells", "setting": "whole blood; in vitro", "result": "never occurred"}, {"measurement": "P50 shifts to higher PO2", "setting": "whole blood; with murine whole blood", "result": "up to 40%"}, {"measurement": "Ca^2+ conc.", "setting": "[6]; 10 min after completion of injection (before injection 2.38)", "result": 1.73, "unit": "mmol/L"}, {"measurement": "Ca^2+ conc.", "setting": "[6]; 24 hrs after injection (before injection 2.38)", "result": 2.36, "unit": "mmol/L"}, {"measurement": "level of calcium", "setting": "[6]; piglets, IV, CaCl2 (equimolar to ITPP) injected with ITPP", "result": "remained constant"}, {"measurement": "level of the other ions sodium and potassium", "setting": "[6]; piglets, after IV injection of ITPP", "result": "unchanged"}, {"measurement": "basal value of the red blood cell count", "setting": "[7]; 12 days after ingestion of ITPP, once ΔP50 becomes 0%", "result": "restored"}, {"measurement": "toxicity", "setting": "[7]; administered orally", "result": "little or no toxicity"}, {"measurement": "number of white blood cells", "setting": "[7]; blood from mice in different groups, day 0, 7 and 11", "result": "no significant differences"}, {"measurement": "number of red blood cells", "setting": "[7]; mice having ingested ITPP, blood counts day 0, 7 and 11", "result": "reduced"}, {"measurement": "acceptance / harm to the animals", "setting": "[7]; mice, ITPP-solution 20g/L (27mM) in drinking water for 4 days", "result": "neither rejected by the mice, nor harmful to the animals"}, {"measurement": "level of ions, such as sodium and potassium and calcium", "setting": "[7]; mice, after oral application, serum, day 0, 7 and 11", "result": "normal"}, {"measurement": "P50 values after 12 days", "setting": "[8]; ingestion stopped on day 4", "result": "back to control values"}, {"measurement": "right shifts of P50", "setting": "[8]; mice, oral application, 27 mM", "result": "up to 31%"}, {"measurement": "time lag before the maximum shift is attained", "setting": "[8]; mice, oral, 27 mM", "result": "approximately 48 hrs"}]}
